Assay results from US20060014193A1, “Nucleoside phosphoramidates and nucleoside phosphoramidases” (priority 2004, published 2006).
Marks after values point to notes of the source that are not given here.

Columns and labels:
[1] = biological target: T1, Rabbit HINT1 (Oryctolagus cuniculus, UniProt P80912); settings: Bieganowski et al, 2002; cited from earlier work
T1 construct: made in house; host or cells: E. coli hinT deletion mutant

[2] = biological target: T2, E. coli Tuner(DE3)pLacI cell lysates (Escherichia coli, UniProt P0ACE7); assay: 31P NMR phosphoramidase activity in cell lysates; format: biochemical
T2 construct: Cell lysates from E. coli Tuner(DE3)pLacI cells (Novagen) were obtained by treatment with lysozyme; host or cells: E. coli Tuner(DE3)pLacI
T2 sequence (P0ACE7 whole entry): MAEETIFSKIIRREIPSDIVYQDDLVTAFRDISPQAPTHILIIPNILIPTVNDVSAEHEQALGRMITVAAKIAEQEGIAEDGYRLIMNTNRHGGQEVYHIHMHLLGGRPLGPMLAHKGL
Procedure: (§1) Phosphoramidase activity in cell lysates was measured by the ^1H-decoupling mode of phosphorus-31 NMR spectroscopy (Varian VAC-300 spectrometer), which can clearly distinguish the substrate, AMP-NH2, and the product, adenosine 5′-monophosphate (AMP). NMR spectrometry is suitable for quantitation by integration of the area under the peak, which is proportional to the amount of nuclei present. The relative ratio of peak areas can be used to calculate the amount of turnover corrected based on a standard curve.
Cell lysates from E. coli Tuner(DE3)pLacI cells (Novagen) were obtained by treatment with lysozyme (1 mg/ml) and the DNA was precipitated by protamine sulfate followed by centrifugation to remove cell debris. The supernatant was dialyzed extensively against Buffer A (20 mM Tris (pH 7.0); 1 mM EDTA; 1 mM DTT, 0.01 mM PMSF) to remove cellular phosphates and nucleotides. Phosphate free cell lysates (0.75 mg total protein) were incubated with 5 mM AMP-NH2 in 0.5 ml reaction buffer (0.5 mM MgCl2, 20 mM HEPES (pH 7.2)) at 37° C. for intervals of 15 min, 30 min, and 12 h. The reactions were terminated by snap freezing in a dry ice/acetone slush bath and lyophilized for 5 h. […] For the low pH control experiment, 10 mM AMP-NH2 in reaction buffer (500 μL, pH 2.0) was incubated at 37° C. for 12 h and the 31p signal was detected under the same conditions. […]

[3] = Low pH control: chemical stability in pH 2.0 buffer by 31P NMR; format: physicochemical; settings: 10 mM, 37° C.
Procedure: (§2) Cell lysates from E. coli Tuner(DE3)pLacI cells (Novagen) were obtained by treatment with lysozyme (1 mg/ml) and the DNA was precipitated by protamine sulfate followed by centrifugation to remove cell debris. The supernatant was dialyzed extensively against Buffer A (20 mM Tris (pH 7.0); 1 mM EDTA; 1 mM DTT, 0.01 mM PMSF) to remove cellular phosphates and nucleotides. Phosphate free cell lysates (0.75 mg total protein) were incubated with 5 mM AMP-NH2 in 0.5 ml reaction buffer (0.5 mM MgCl2, 20 mM HEPES (pH 7.2)) at 37° C. for intervals of 15 min, 30 min, and 12 h. The reactions were terminated by snap freezing in a dry ice/acetone slush bath and lyophilized for 5 h. The samples were then dissolved in NMR buffer (600 μL, 50 mM EDTA, 20 mM HEPES (pH 7.2), and 1 mM TMP (trimethylphosphate, internal standard)) and the insoluble portion was spun down by centrifugation at 12,500×g for 5 min. A ^31P NMR spectrum was then collected for the supernatant. For the low pH control experiment, 10 mM AMP-NH2 in reaction buffer (500 μL, pH 2.0) was incubated at 37° C. for 12 h and the 31p signal was detected under the same conditions.
Tuner(DE3)pLacI, a modified E. coli BL21 strain, was used to determine phosphoramidase activity in cell lysates. […]

[4] = biological target: hHINT1 (Homo sapiens, UniProt P49773); settings: literature (J. Biol. Chem. 2004, 279, 18711; 2002, 277, 10852); cited from earlier work
Chain of hHINT1 (P49773 whole entry): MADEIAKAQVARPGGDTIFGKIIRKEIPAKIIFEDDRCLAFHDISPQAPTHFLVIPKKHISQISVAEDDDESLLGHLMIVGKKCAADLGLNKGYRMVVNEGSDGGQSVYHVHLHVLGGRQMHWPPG

[5] = tested on: BB2-1 (-HINT) cell lysates; assay: 31P NMR phosphoramidase activity in cell lysates of hinT deletion strain; format: biochemical, E. coli
Procedure: as §1
as §2, with “Phosphate free cell lysates (0.75 mg total protein) were incubated with 5 mM AMP-NH2 in 0.5 ml reaction buffer (0.5 mM MgCl2, 20 mM HEPES (pH 7.2)) at 37° C. for intervals of 15 min, 30 min, and 12 h.” left out
The E. coli hinT gene in strain BW25113 was disrupted as previously described (Datsenko & Wanner, 2000, PNAS USA, 97:6640-6645). Plasmid pKD3 and primers 7024 and 7025 (Table 2) were used for amplification of the chloramphenicol resistance marker (Cm^r). Stable chloramphenicol resistant transformants of BW25113 were tested by PCR with primers 7026 and 7027 to confirm correct recombination of the Cm^r marker into the hinT locus. A strain that tested positive by PCR was named BB1. Strain BB3 was constructed by removing the antibiotic resistance marker using Red recombinase as described previously (Datsenko & Wanner, supra). The hinT gene was amplified from the chromosomal DNA of E. coli strain BW25113 with primers 7328 and 7329. The product of this reaction was cloned into Bluescript SK+ using EcoRI and BamHI sites included in the primers' sequences. The resulting plasmid was named pB429. […] Plasmids pB432 and pB433 were obtained by cloning HindIII-EcoRI fragments containing wild type and H101A mutated alleles of hinT from plasmids pB429 and pB431 into plasmid pACYC184. All E. coli transformations were performed by electroporation.
To determine if E. coli hinT is solely responsible of the observed lysates' phosphoramidase activity, a mutant strain, BB1, in which the hinT gene was replace with the chloramphenicol resistance marker, was constructed. The phosphoramidase activities of the wild-type E. coli BL21 Star strain and the mutant strain lysates were determined (Table 3). […] (Table 2). Therefore, the adenosine phosphoramidase activity observed for E. coli cell lysates appears to be totally dependent on hinT.

[6] = biological target: T3, Yeast HNT (Saccharomyces cerevisiae, UniProt Q04344); settings: Bieganowski et al, 2002; cited from earlier work
T3 sequence (Q04344 1-158): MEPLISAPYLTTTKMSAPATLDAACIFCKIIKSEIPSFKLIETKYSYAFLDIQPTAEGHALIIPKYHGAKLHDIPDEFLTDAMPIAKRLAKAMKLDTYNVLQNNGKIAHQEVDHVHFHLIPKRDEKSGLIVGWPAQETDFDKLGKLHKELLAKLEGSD

T1 sequence (P80912 whole entry): as the sequence (P49773 whole entry) above, with R37Q, V65A, D69A, N91K, H122N counted along it

Compound: Nc1ncnc2c1ncn2[C@@H]1O[C@H](COP(N)(=O)O)[C@@H](O)[C@H]1O [AMP-NH2, Adenosine 5′-monophosphoramidate]
- Velocity [1]: 1.71^b nmol/μg/min
- Extent of hydrolysis to AMP ([2]; 12 h incubation, 37° C.): complete hydrolysis
- Hydrolysis rate by E. coli cell lysates ([2]; pH 7.0, 37° C., 5 mM, averaged for 15 min and 30 min): 76.3 (±20.9) nmol mg^−1 min^−1
- Stability at pH 2.0 (no detectable AMP or Pi) [3]: at least 12 h
- Kcat [4]: 0.2 s⁻¹
- Km [4]: 0.068 µM
- AMP formation with lysates of hinT deletion strain BB1 [5]: no AMP formation could be observed
- Specific activity ([5]; 0.2 mg protein, 30 min): 0 nmol/mg/min
- Specific activity ([5]; 0.5 mg protein, 30 min): 0 nmol/mg/min
- Specific activity ([5]; 0.5 mg protein, 70 min): 0 nmol/mg/min
- Specific activity ([5]; 0.5 mg protein, 1380 min): 0 nmol/mg/min
- Average specific activity ([5]; average): 0 nmol/mg/min
- Velocity [6]: 7.57^b nmol/μg/min
